{"source": "patent US20120219613A1", "about": "(priority 2009, published 2012)", "key": {"[1]": {"test_system": "RVFV MP-12", "type": "cell-based, Rift Valley fever virus"}, "[2]": {"test_system": "NiV-pVSV", "type": "cell-based"}, "[3]": {"test_system": "Influenza A", "assay": "microbe, parasite or virus in culture", "type": "cell-based, WSN H1N1", "settings": "read-out: Activity"}, "[4]": {"test_system": "Yellow Fever", "assay": "organism not typed", "type": "cell-based, Asibi", "settings": "read-out: Activity"}, "[5]": {"test_system": "Murine Leukemia", "assay": "cells", "type": "cell-based, F57", "settings": "Mus musculus, read-out: Activity"}, "[6]": {"test_system": "HIV-1 (JRCSF)", "type": "cell-based"}, "[7]": {"test_system": "Omsk", "assay": "organism not typed", "type": "cell-based, Omsk Hemorrhagic Fever, Guriev", "settings": "read-out: Activity"}, "[8]": {"settings": "male, Sprague-Dawley, rat, in vivo"}, "[9]": {"test_system": "NiV VLPs", "type": "cell-based, Nipah virus"}, "[10]": {"test_system": "Junín", "assay": "organism not typed", "type": "cell-based", "settings": "read-out: Activity"}, "[11]": {"test_system": "Marburg", "assay": "organism not typed", "type": "cell-based, Musoke/Ravn", "settings": "read-out: Activity"}, "[12]": {"test_system": "West Nile Virus", "assay": "microbe, parasite or virus in culture", "type": "cell-based", "settings": "read-out: Activity"}, "[13]": {"test_system": "Hepatitis C Virus", "assay": "microbe, parasite or virus in culture", "type": "cell-based", "settings": "read-out: Activity"}, "[14]": {"test_system": "PIV-5", "assay": "organism not typed", "type": "cell-based", "settings": "read-out: Activity"}, "[15]": {"test_system": "Rift Valley Fever", "assay": "organism not typed", "type": "cell-based", "settings": "read-out: Activity"}, "[16]": {"test_system": "Vero cells", "type": "cell-based"}, "[17]": {"test_system": "VSV transcription", "type": "biochemical, VSV-Indiana"}, "[18]": {"test_system": "Vesicular", "assay": "microbe, parasite or virus in culture", "type": "cell-based, Vesicular Stomatitis, Indiana"}, "[19]": {"test_system": "pVSV", "type": "cell-based"}, "[20]": {"test_system": "live VSV and NiV-pVSV", "type": "cell-based"}, "[21]": {"test_system": "RSSE", "assay": "organism not typed", "type": "cell-based, Russian Spring Summer Encephalitis, Sofiin", "settings": "read-out: Activity"}, "[22]": {"test_system": "Reovirus", "assay": "microbe, parasite or virus in culture", "type": "cell-based", "settings": "Reovirus sp., read-out: Activity"}, "[23]": {"test_system": "Vaccinia", "assay": "microbe, parasite or virus in culture", "type": "cell-based, VTF1.1", "settings": "Orthopoxvirus vaccinia, read-out: Activity"}, "[24]": {"test_system": "pVSV particles"}, "[25]": {"assay": "in vivo", "settings": "male, Sprague-Dawley, rat, ip"}, "[26]": {"test_system": "Cowpox", "assay": "organism not typed", "type": "cell-based, Brighton", "settings": "read-out: Activity"}, "[27]": {"test_system": "NDV", "type": "cell-based, Newcastle Disease, rNDV/F3aa-GFP"}, "[28]": {"test_system": "LaCrosse", "assay": "organism not typed", "type": "cell-based", "settings": "read-out: Activity"}, "[29]": {"test_system": "Vero cells infected with pVSV", "type": "cell-based"}, "[30]": {"test_system": "NiV-pVSV", "assay": "microbe, parasite or virus in culture", "type": "cell-based, Nipah virus envelope pseudotyped onto VSV"}, "[31]": {"test_system": "HIV-1", "assay": "microbe, parasite or virus in culture", "type": "cell-based", "settings": "Human immunodeficiency virus 1, read-out: Activity"}, "[32]": {"test_system": "Coxsackie B", "assay": "organism not typed", "type": "cell-based", "settings": "read-out: Activity"}, "[33]": {"test_system": "Vero cells"}, "[34]": {"test_system": "Adenovirus", "assay": "microbe, parasite or virus in culture", "type": "cell-based", "settings": "unidentified adenovirus, read-out: Activity"}, "[35]": {"test_system": "Vero cells", "remark": "listed apart in the source"}, "[36]": {"test_system": "NiV envelope mediated cell-cell fusion", "type": "cell-based"}, "[37]": {"test_system": "Ebola", "assay": "microbe, parasite or virus in culture", "type": "cell-based", "settings": "Zaire ebolavirus, read-out: Activity"}, "[38]": {"test_system": "NiV-pseudotyped pVSV binding to ephrinB2", "type": "cell-based"}, "[39]": {"test_system": "Nipah", "assay": "organism not typed", "type": "cell-based, Malaysia"}, "[40]": {"settings": "mouse, in vivo"}, "[41]": {"test_system": "HPIV-3", "assay": "microbe, parasite or virus in culture", "type": "cell-based", "settings": "Human respirovirus 3, read-out: Activity"}, "[42]": {"test_system": "VSV-G pseudotyped VSV", "type": "cell-based, Vesicular Stomatitis virus"}}}
{"smiles": "C=CCN1C(=O)/C(=C/c2ccc(-c3ccccc3)o2)SC1=S", "note": "[LJ-001, (Z)-3-Allyl-5-(5-phenyl-2-furyl)methylene-4-oxothiazolidine-2-thione]", "values": [{"measurement": "infectivity of gradient fractions", "setting": "[1]", "value": "completely non-infectious"}, {"measurement": "reduction in infectivity", "setting": "[1]", "value": "≥ 5", "unit": "log"}, {"measurement": "effect of compound pre-incubated with saturating liposomes on viral infection", "setting": "[2]", "value": "no effect on viral infection"}, {"measurement": "effect of excess liposomes, virus pre-exposed to compound", "setting": "[2]", "value": "no longer able to rescue viral infection"}, {"measurement": "effect of liposome size on binding or reversal of inhibition", "setting": "[2]", "value": "no effect"}, {"measurement": "effect of liposomes, virus and liposomes simultaneously subjected to compound", "setting": "[2]", "value": "competed off virus infection"}, {"measurement": "IC50", "setting": "[3]", "value": "< 500", "unit": "nM"}, {"measurement": "IC50", "setting": "[4]", "value": "< 500", "unit": "nM"}, {"measurement": "IC50", "setting": "[5]", "value": "500 to 1000", "unit": "nM"}, {"measurement": "sensitivity of passaged virus to compound", "setting": "[6]", "value": "no evidence of decreased sensitivity"}, {"measurement": "IC50", "setting": "[7]", "value": "500 to 1000", "unit": "nM"}, {"measurement": "peak serum concentration, 20 mg/kg group versus 50 mg/kg group", "setting": "[8]", "value": "higher peak serum concentration than the 50 mg/kg group"}, {"measurement": "time until serum levels approach in vitro IC50 concentrations", "setting": "[8]; ip", "value": "about 2 hours"}, {"measurement": "cytoplasmic delivery of beta-lactamase matrix fusion protein", "setting": "[9]", "value": "inhibited cytoplasmic delivery"}, {"measurement": "IC50", "setting": "[10]", "value": "500 to 1000", "unit": "nM"}, {"measurement": "IC50", "setting": "[11]", "value": "500 to 1000", "unit": "nM"}, {"measurement": "IC50", "setting": "[12]", "value": "< 500", "unit": "nM"}, {"measurement": "IC50", "setting": "[13]", "value": "< 500", "unit": "nM"}, {"measurement": "IC50", "setting": "[14]", "value": "500 to 1000", "unit": "nM"}, {"measurement": "IC50", "setting": "[15]", "value": "< 500", "unit": "nM"}, {"measurement": "intercalation into cellular membranes", "setting": "[16]", "value": "dose-dependent increase in fluorescence"}, {"measurement": "viral transcription, mRNA production, and mRNA capping of VSV", "setting": "[17]", "value": "unaffected"}, {"measurement": "infection and infectious spread of live VSV", "setting": "[18]", "value": "inhibit infection and infectious spread"}, {"measurement": "IC50", "setting": "[18]; Vesicular stomatitis virus, read-out: Activity", "value": "500 to 1000", "unit": "nM"}, {"measurement": "inhibitory effect versus time of addition", "setting": "[19]", "value": "apparent only when the compound was added before or during, but not after, the viral infection period"}, {"measurement": "infectivity of treated virus after 4 h PBS wash and secondary repurification", "setting": "[20]", "value": "remained non-infectious"}, {"measurement": "infectivity of treated virus after washing and repurification", "setting": "[20]", "value": "non-infectious"}, {"measurement": "IC50", "setting": "[21]", "value": "500 to 1000", "unit": "nM"}, {"measurement": "IC50", "setting": "[22]", "value": "> 10000", "unit": "nM"}, {"measurement": "IC50", "setting": "[23]", "value": "500 to 1000", "unit": "nM"}, {"measurement": "virion membrane morphology by EM", "setting": "[24]", "value": "significant distortion of the viral membrane"}, {"measurement": "half-life", "setting": "[25]", "value": "~4", "unit": "h"}, {"measurement": "IC50", "setting": "[26]", "value": "1000 to 5000", "unit": "nM"}, {"measurement": "IC50", "setting": "[27]", "value": "500 to 1000", "unit": "nM"}, {"measurement": "IC50", "setting": "[28]", "value": "< 500", "unit": "nM"}, {"measurement": "inhibitory effect after washing pre-treated target cells", "setting": "[29]", "value": "Washing the cells reversed the inhibitory effect"}, {"measurement": "effect of pre-treatment temperature and duration on antiviral activity", "setting": "[30]", "value": "no significant effect"}, {"measurement": "reporter virus entry via Nipah virus envelope (NiV-F/G)", "setting": "[30]", "value": "inhibited reporter virus entry"}, {"measurement": "IC50", "setting": "[30]; Vesicular stomatitis virus, Vero, read-out: in vitro IC50 concentrations", "value": "~1000", "unit": "nM"}, {"measurement": "IC50", "setting": "[31]", "value": "500 to 1000", "unit": "nM"}, {"measurement": "IC50", "setting": "[32]", "value": "> 10000", "unit": "nM"}, {"measurement": "active cell metabolism (Alamar Blue uptake)", "setting": "[33]", "value": "no effect on active cell metabolism"}, {"measurement": "IC50", "setting": "[34]", "value": "> 10000", "unit": "nM"}, {"measurement": "toxic effects in AK and LD enzyme release assays", "setting": "[35]", "value": "little to no toxic effects"}, {"measurement": "NiV envelope mediated cell-cell fusion", "setting": "[36]", "value": "did not inhibit"}, {"measurement": "IC50", "setting": "[37]", "value": "500 to 1000", "unit": "nM"}, {"measurement": "virus-cell binding", "setting": "[38]", "value": "still bound cognate cell surface receptors"}, {"measurement": "infection and infectious spread of live NiV", "setting": "[39]", "value": "inhibit infection and infectious spread"}, {"measurement": "IC50", "setting": "[39]; read-out: Activity", "value": "500 to 1000", "unit": "nM"}, {"measurement": "complete blood counts with differential", "setting": "[40]", "value": "no difference relative to the vehicle control group"}, {"measurement": "hematocrit and hemoglobin levels", "setting": "[40]", "value": "normal"}, {"measurement": "liver function tests, kidney function tests, serum electrolytes", "setting": "[40]", "value": "all normal and equivalent to the vehicle control mice"}, {"measurement": "serum cholesterol levels", "setting": "[40]", "value": "statistically significant elevation"}, {"measurement": "serum metabolites (glucose, phosphate, triglycerides)", "setting": "[40]", "value": "normal"}, {"measurement": "weight loss", "setting": "[40]", "value": "< 10", "unit": "%"}, {"measurement": "IC50", "setting": "[41]", "value": "500 to 1000", "unit": "nM"}, {"measurement": "reporter virus entry via Vesicular Stomatitis virus envelope proteins (VSV-G)", "setting": "[42]", "value": "inhibited reporter virus entry"}]}
